Experimental findings from patent US20220185832A1, “CD73 INHIBITORS” (BioArdis LLC, priority 2019, published 2022) are described below.

For assay [1], the target named is T1, Recombinant Human 5′-Nucleotidase (CD73) (Homo sapiens, UniProt P21589).
T1 construct: CHO derived CD73 (Trp27-Lys547), with a C-terminal 6-His tag; 6-His (C); purchased R&D 5795-EN; host or cells: CHO
T1 sequence (P21589 27-547): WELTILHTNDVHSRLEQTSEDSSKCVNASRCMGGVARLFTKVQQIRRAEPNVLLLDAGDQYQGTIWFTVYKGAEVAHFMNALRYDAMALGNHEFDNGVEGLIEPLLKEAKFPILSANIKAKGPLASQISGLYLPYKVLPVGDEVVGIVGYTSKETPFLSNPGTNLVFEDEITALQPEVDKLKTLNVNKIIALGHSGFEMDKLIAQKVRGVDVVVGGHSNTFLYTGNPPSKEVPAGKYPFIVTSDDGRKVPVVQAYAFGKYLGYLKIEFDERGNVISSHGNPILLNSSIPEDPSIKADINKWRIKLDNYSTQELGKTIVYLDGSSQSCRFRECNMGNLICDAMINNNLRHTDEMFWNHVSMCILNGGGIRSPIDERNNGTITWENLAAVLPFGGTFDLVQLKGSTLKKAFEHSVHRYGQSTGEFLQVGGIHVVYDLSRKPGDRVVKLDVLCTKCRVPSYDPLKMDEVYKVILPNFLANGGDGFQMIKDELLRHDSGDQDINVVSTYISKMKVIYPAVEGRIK
Briefly: CD73 Enzyme Assay. The class given is biochemical. The following applies: 0.5 nM human CD73, 30 μM AMP, PiColorLock phosphate detection, OD 635 nm; read-out: Potency (IC50). An excerpt: Soluble recombinant CD73 catalyzes the conversion of adenosine monophosphate (AMP) to adenosine and inorganic phosphate. The phosphate detection reagent, PiColorLock™ (Innova Bioscience, Cat #303-0125) is based on the change in absorbance of the dye malachite green in the presence of inorganic phosphate (Pi) and this property can be exploited to measure any enzyme that generates Pi. Recombinant Human 5′-Nucleotidase (CD73) (R&D #5795-EN, CHO derived CD73 (Trp27-Lys547), with a C-terminal 6-His tag) was used in the enzymatic assay. This assay was run in a 384-well plate format (Corning® NBS™ 384 well plates, Cat #3640). The basic assay procedure involves two steps: 1) Enzyme reaction: The CD73 enzyme (R&D #5795-EN) is incubated in the presence or absence of compounds. AMP (sigma, cat #01930) is added to start the kinase reaction. 2) Detection step: “Gold mix” is added to the assay system, then stabilizers are added. After incubation the absorbance of the solution is read at OD 635 nm. The recorded OD signal is proportional to the enzyme activity.
Briefly, 25 μl human CD73 (0.5 nM final concentration) in the enzymatic buffer solutions (20 mM Tris, 25 mM NaCl, 1 mM MgCl2, pH 7.5, 0.005% Tween-20) were mixed with various concentrations of the test compound (dissolved in 100% DMSO). These solutions were incubated for 15 min at 25° C., and subsequently 25 μl AMP (30 μM final concentration) was added to start the reaction. The final reaction mixture of enzyme-substrate-compound was incubated for 20 min at 37° C. Meanwhile, “Gold mix” was prepared shortly before use by adding 1/100 vol. of accelerator to the PiColorLock™ Gold reagent. 12 μL/well of the “Gold mix” was added to assay plate containing 50 μL enzyme reaction buffer and incubated at 25° C. for 5 min. 5 μL/well stabilizer was added to the assay plate and incubated at 25° C. for 30 min. The absorbance of the well solutions was measured at 635 nm on a Spark 10M instrument (TECAN).
The percent (%) inhibition at each concentration of a compound was calculated relative to the OD value in the Max and Min control wells contained within each assay plate. The Max control wells contained enzyme and substrate as 0% inhibition, and the Min control wells only contained substrate without enzyme as 100% inhibition. The concentrations and percent inhibition values for a test compound are plotted and the concentration of the compound required to achieve 50% inhibition (IC50) was determined with a four-parameter logistic dose response equation.

The target in assay [2] is T2, Cell surface CD73 of U87 MG human glioblastoma cells (Homo sapiens, UniProt P21589).
T2 construct: Cell surface CD73 catalyzes the conversion of adenosine monophosphate (AMP) to adenosine and inorganic phosphate; endogenous in cells; host or cells: U87 MG human glioblastoma cells
T2 sequence (P21589 27-549): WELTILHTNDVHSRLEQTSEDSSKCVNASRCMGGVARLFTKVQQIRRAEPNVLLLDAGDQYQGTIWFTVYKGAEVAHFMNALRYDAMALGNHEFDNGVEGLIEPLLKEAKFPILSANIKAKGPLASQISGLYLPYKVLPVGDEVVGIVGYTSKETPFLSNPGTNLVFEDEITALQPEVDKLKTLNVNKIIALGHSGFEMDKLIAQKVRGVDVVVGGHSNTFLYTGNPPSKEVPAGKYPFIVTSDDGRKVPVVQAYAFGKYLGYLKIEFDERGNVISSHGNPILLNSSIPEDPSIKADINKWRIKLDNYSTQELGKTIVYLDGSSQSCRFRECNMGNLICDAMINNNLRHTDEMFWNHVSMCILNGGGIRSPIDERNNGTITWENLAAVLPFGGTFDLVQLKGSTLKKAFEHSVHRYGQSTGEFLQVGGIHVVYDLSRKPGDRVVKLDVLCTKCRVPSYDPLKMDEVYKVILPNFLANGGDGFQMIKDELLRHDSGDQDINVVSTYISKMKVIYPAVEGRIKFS
In words: CD73 Cellular Assay. The class given is cell-based. The following applies: 5000 cells per well, 30 μM AMP, PiColorLock phosphate detection in supernatant, read-out: Potency (IC50). As to the method: Cell surface CD73 catalyzes the conversion of adenosine monophosphate (AMP) to adenosine and inorganic phosphate. U87 MG human glioblastoma cells express high level of CD73. Cells are treated with compounds in a 96-well assay plate and supernatants are collected into a 384-well detection plate. The concentration of inorganic phosphate (Pi) in the supernatants is determined using the phosphate detection reagent, PiColorLock™ (Innova Bioscience, Cat #303-0125) following the manufacturer's instructions.
Briefly, on the day of the assay, U87 MG cells were harvested and resuspended in assay buffer which consisted of 20 mM HEPES, pH=7.4, 137 mM NaCl, 5.4 mM KCl, 1.3 mM CaCl2, 4.2 mM NaHCO3 and 0.1% glucose. To test the effect of compounds on cellular CD73 enzymatic activity, 500 nL/well of compounds dissolved in DMSO were added to a 96-well TC-treated microplate (Corning #3599). Next, 80 μL/well of U87 MG cells in assay buffer were added to assay plate. After 30 minutes of incubation in an atmosphere of 5% CO2 at 37° C., 20 μL/well of 150 μM AMP (Adenosine 5′-monophosphate monohydrate, Sigma, Cat #01930) in assay buffer was added to assay plate. Final assay conditions consisted of 5000 cells per well in 0.5% DMSO and 30 μM AMP substrate. After 50 minutes of incubation in an atmosphere of 5% CO2 at 37° C., 50 μL/well of supernatant was transferred to the 384-well detection plate (Corning® NBSTM 384 well plates, Cat #3640). Meanwhile “Gold mix” was prepared shortly before use by adding 1/100 volume of accelerator to the PiColorLock™ Gold reagent. 12 μL/well of the “Gold mix” was added to detection plate containing 50 μL/well of supernatant and incubated at 25° C. for 5 minutes. 5 μL/well stabilizer was added to the detection plate and incubated at 25° C. for 30 minutes. The absorbance at 635 nm was measured on a Spark 10M instrument (TECAN).
The percent (%) inhibition at each concentration of a compound was calculated relative to the OD value in the Max and Min control wells contained within each assay plate. The Max control wells contained cells and substrate as 0% inhibition, and the Min control wells only contained cells as 100% inhibition. The concentrations and percent inhibition values for a test compound are plotted and the concentration of the compound required to achieve 50% inhibition (IC50) was determined with a four-parameter logistic dose response equation.

In general, IC50 refers to the concentration that inhibits the measured activity by half. Regarding `O=P(O)(O)CP(=O)(O)OC[C@H]1O[C@@H](c2ccc3c(NC4CCC4)nc(Cl)nc3c2)[C@H](O)[C@@H]1O` [Compound 7, (((((2R,3S,4R,5S)-5-(2-chloro-4-(cyclobutylamino)quinazolin-7-yl)-3,4-dihydroxytetrahydrofuran-2-yl)methoxy)(hydroxy)phosphoryl)methyl)phosphonic acid], the IC50 in assay [1] is 0.01 to 0.099 µM; in assay [2], less than 0.01 µM.
Taken in the same sequence, the figures for `O=P(O)(O)CP(=O)(O)OC[C@H]1O[C@@H](c2ccc3c(NC4CCCC4)nc(Cl)nc3c2)[C@H](O)[C@@H]1O` [Compound 4, (((((2R,3S,4R,5S)-5-(2-chloro-4-(cyclopentylamino)quinazolin-7-yl)-3,4-dihydroxytetrahydrofuran-2-yl)methoxy)(hydroxy)phosphoryl)methyl)phosphonic acid] were less than 0.01 µM and less than 0.01 µM.
In the case of `O=P(O)(O)CP(=O)(O)OC[C@H]1O[C@@H](c2ccc3c(NC4CCc5ccccc54)nc(Cl)nc3c2)[C@H](O)[C@@H]1O` (stereo partly drawn) [Compound 25, [({[(2R,3S,4R,5S)-5-[2-chloro-4-(2,3-dihydro-1H-inden-1-ylamino)quinazolin-7-yl]-3,4-dihydroxyoxolan-2-yl]methoxy}(hydroxy)phosphoryl)methyl]phosphonic acid], the IC50 in assay [1] and in assay [2] was less than 0.01 µM in each case.
Regarding `O=P(O)(O)CP(=O)(O)OC[C@H]1O[C@@H](c2ccc3c(NCCc4ccccc4)nc(Cl)nc3c2)[C@H](O)[C@@H]1O` [Compound 2, (((((2R,3S,4R,5S)-5-(2-chloro-4-(phenethylamino)quinazolin-7-yl)-3,4-dihydroxytetrahydrofuran-2-yl)methoxy)(hydroxy)phosphoryl)methyl)phosphonic acid], the IC50 in assay [1] was 0.01 to 0.099 µM; in assay [2] it was less than 0.01 µM.
As to `O=P(O)(O)CP(=O)(O)OC[C@H]1O[C@@H](c2ccc3c(NC4CCOC4)nc(Cl)nc3c2)[C@H](O)[C@@H]1O` (stereo partly drawn) [Compound 22, (((((2R,3S,4R,5S)-5-(2-chloro-4-((tetrahydrofuran-3-yl)amino)quinazolin-7-yl)-3,4-dihydroxytetrahydrofuran-2-yl)methoxy)(hydroxy)phosphoryl)methyl)phosphonic acid], the IC50 in assay [1] and in assay [2] was less than 0.01 µM each time.
Take `O=P(O)(O)CP(=O)(O)OC[C@H]1O[C@@H](c2ccc3c(NCC4CCC4)nc(Cl)nc3c2)[C@H](O)[C@@H]1O` [Compound 8, (((((2R,3S,4R,5S)-5-(2-chloro-4-((cyclobutylmethyl)amino)quinazolin-7-yl)-3,4-dihydroxytetrahydrofuran-2-yl)methoxy)(hydroxy)phosphoryl)methyl)phosphonic acid]: the IC50 in assay [1] and in assay [2] was less than 0.01 µM each time.
Turning to `CN(c1ncnc2cc([C@@H]3O[C@H](COP(=O)(O)CP(=O)(O)O)[C@@H](O)[C@H]3O)ccc12)C1CCCC1` [Compound 10, (((((2R,3S,4R,5S)-5-(4-(cyclopentyl(methyl)amino)quinazolin-7-yl)-3,4-dihydroxytetrahydrofuran-2-yl)methoxy)(hydroxy)phosphoryl)methyl)phosphonic acid], the IC50 in assay [1] was 0.01 to 0.099 µM; in assay [2] it was less than 0.01 µM.
On to `O=P(O)(O)CP(=O)(O)OC[C@H]1O[C@@H](c2ccc3c(NCc4ccccc4)nc(Cl)nc3c2)[C@H](O)[C@@H]1O` [Compound 1, (((((2R,3S,4R,5S)-5-(4-(benzylamino)-2-chloroquinazolin-7-yl)-3,4-dihydroxytetrahydrofuran-2-yl)methoxy)(hydroxy)phosphoryl)methyl)phosphonic acid], for which the values for the IC50 in assay [1] and in assay [2] were 0.01 to 0.099 µM and less than 0.01 µM, respectively.
For `C=Cc1nc(NCc2ccccc2)c2ccc([C@@H]3O[C@H](COP(=O)(O)CP(=O)(O)O)[C@@H](O)[C@H]3O)cc2n1` [Compound 18, [({[(2R,3S,4R,5S)-5-[4-(benzylamino)-2-ethenylquinazolin-7-yl]-3,4-dihydroxyoxolan-2-yl]methoxy}(hydroxy)phosphoryl)methyl]phosphonic acid], in that order: 0.01 to 0.099 µM and less than 0.01 µM.
Taken in the same sequence, the figures for `O=P(O)(O)CP(=O)(O)OC[C@H]1O[C@@H](c2ccc3c(NCc4ccccc4Cl)nc(Cl)nc3c2)[C@H](O)[C@@H]1O` [Compound 23, (((((2R,3S,4R,5S)-5-(2-chloro-4((2-chlorobenzyl)amino)quinazolin-7-yl)-3,4-dihydroxytetrahydrofuran-2-yl)methoxy)(hydroxy)phosphoryl)methyl)phosphonic acid] were less than 0.01 µM and less than 0.01 µM.
